Data on 1 compound can be found in publication PMC10972148, “Cloning and Characterization of a Novel N-Acetyl-D-galactosamine-4-O-sulfate Sulfatase, SulA1, from a Marine Arthrobacter Strain” (Marine Drugs, 2024).

The subject of the assay is T1, SulA1.
T1 construct: forward primer encodes MVSSSPA (translated here)
Briefly: GalNAc release by HPAEC-PAD, Michaelis-Menten nonlinear fit. The following applies: pH 5.5, 40 °C, 30 min, 0-20 mM substrate; 100 mM acetate buffer; unit not printed beside the value, taken from the mM axis of Figure 9B. It is filed as biochemical, Arthrobacter sp. MAT3885.

For `CC(=O)N[C@H]1C(O)O[C@H](CO)[C@H](OS(=O)(=O)O)[C@@H]1O` (stereo partly drawn) [GalNAc4S, N-Acetyl-D-galactosamine-4-sulfate], the Km worked out at 6.94 ± 0.053 mM.

The Km is the concentration of substrate that gives half-maximal velocity.
